Values belong to the compound of their own block, whether it stands above or below them.
Columns and labels:
[1] = test system: rat peritoneal mast cells; assay: Histamine liberation from rat peritoneal mast cells by concanavalin A; assay type: cell-based; conditions: Mast cell, test compound 0.2 mM, phosphatidylserine 3.0 μg/ml
Protocol: This test was effected in accordance with the method of R. P. Siraganian [J. Immunol., 114, 886 (1974)]. That is, a Locke solution containing phosphatidylserine, a test compound and a suspension of rat peritoneal mast cells was heated for 20 minutes at 37° C. Incidentally, the concentrations of phosphatidylserine and the test compound in the Locke solution were 3.0 μg/ml and 0.2 mM, respectively. A concanavalin A solution was added to the Locke solution, and the mixture was subjected to a reaction for 10 minutes at 37° C. After ice-cooling, the reaction mixture was subjected to centrifugation for 10 minutes at 4° C. Both the supernatant and the precipitate were measured for histamine content by the method of Shore et al. [J. Exp. Ther., 127, 182 (1959)] to determine a ratio of histamine liberated.

rat gastric mucosa = assay type: in vivo; conditions: 50 mg/kg p.o.
Protocol: The compound No. 1 of the present invention and two known cyclooxygenase inhibitors, i.e. Indometacin and Piroxicam were examined for action on rat gastric mucosa. That is, the compound No. 1, Indometacin or Piroxicam was administered orally to male SD rats (body weight: 200-250 g) which had been fasted for 24 hours. After the administration, the rats were allowed to no food and no water for 48 hours. Then, the stomach of each rat was removed under ether anesthesia and fixed with formalin. The resulting stomach was incised and the length of the mucous ulcer generated in the glandular portion of the stomach was measured using a dissecting microscope (magnification of 10).

[2] = test system: rat 48-hour homologous PCA reaction; assay: Rat 48-hour homologous PCA reaction; assay type: in vivo; conditions: 200 mg/kg p.o. 60 minutes before antigen; for Amount of colorant which leaked out: control 9.7 ± 1.9
Protocol: Male SD rats weighing 200-250 g were injected with 0.1 ml of a rat anti-egg albumin serum diluted with a physiological saline solution, intradermally at the back in order to passively sensitize the rats. After 48 hours, 0.5 ml of 1% Evans Blue containing 5 mg of antigen (egg albumin) was administered intravenously. After 30 minutes, each rat was sacrificed by bleeding and the skin was peeled off. Then, the amount of the coloring material in the lesion was determined by the method of Katayama et al. [Microbial. Immunol., 122 (2), 89 (1987)]. Incidentally, each test compound had been administered orally 60 minutes before the antigen administration.

[3] = biological target: T1, hyaluronidase taken from bovine testicles (Bos taurus, UniProt Q2YDK3); assay: Effect on hyaluronidase activity; assay type: biochemical; conditions: concentration range 0.01-0.3 mM; bovine testicular hyaluronidase, pH 3.5
T1 construct: purchased Sigma Co; host or cells: bovine testicles
T1 sequence (Q2YDK3 36-553): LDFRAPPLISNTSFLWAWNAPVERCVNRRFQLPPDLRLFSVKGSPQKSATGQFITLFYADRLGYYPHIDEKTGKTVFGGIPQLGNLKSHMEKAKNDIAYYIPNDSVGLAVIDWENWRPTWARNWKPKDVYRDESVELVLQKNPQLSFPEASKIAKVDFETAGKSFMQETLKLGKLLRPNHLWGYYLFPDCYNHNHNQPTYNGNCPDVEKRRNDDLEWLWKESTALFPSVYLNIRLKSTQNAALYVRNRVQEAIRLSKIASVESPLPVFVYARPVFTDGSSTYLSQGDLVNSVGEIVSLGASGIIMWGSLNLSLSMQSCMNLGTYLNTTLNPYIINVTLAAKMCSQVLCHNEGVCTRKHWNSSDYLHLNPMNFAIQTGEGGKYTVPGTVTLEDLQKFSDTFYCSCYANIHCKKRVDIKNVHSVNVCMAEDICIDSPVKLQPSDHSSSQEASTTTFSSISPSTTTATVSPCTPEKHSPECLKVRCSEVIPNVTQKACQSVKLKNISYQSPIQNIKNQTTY
Protocol: 0.8 mg/ml of a hyaluronidase (a product of Sigma Co.) taken from bovine testicles was used as an enzyme. Test compounds (compound Nos. 1, 2, 4, 7, 8, 9 and 13) were dissolved at various concentrations in a 1 M acetate buffer (pH 3.5) and heated at 37° C. for 20 minutes. Then, calcium chloride was added to each of the resulting solutions so that the calcium chloride concentration became 5 mM, and each of the resulting mixtures was heated at 37° C. for 20 minutes.
Thereto was added potassium hyaluronate so that its concentration in the buffer became 2.4 mg/ml, and the mixture was heated at 37° C. for 40 minutes.
After the termination of the reaction, the amount of the substrate hydrolyzed was determined at 585 nm using the Elson-Morgan's procedure, from which there were determined the effects of each test compound at various concentrations on the normal enzymatic reaction.

[4] = biological target: T1, hyaluronidase taken from bovine testicles; conditions: Chem. Pharm. Bull., 33 (9), 3738 (1985), read-out: "50% enzyme inhibition" concentration; cited from earlier work
[5] = test system: rat peritoneal mast cells; conditions: 0.3 mM; concanavalin A; Chem. Pharm. Bull., 33 (9), 3738 (1985); cited from earlier work
[6] = test system: rat plantar edema induced by carrageenin; assay: Action against rat plantar edema induced by carrageenin; assay type: in vivo
Protocol: Male Sprague-Dawley rats weighing 200-250 g were injected s.c. (subcutaneously) with 0.1 ml of carrageenin into the subplantar region of the right hind paw. 60 minutes before the carrageenin administration, a test compound (compound No. 1) had been administered p.o. (orally). […] Thus, the anti-inflammatory effect of the compound of the present invention was proven in this animal test.

male ddy mice = assay: Acute toxicity by intravenous injection; assay type: in vivo; conditions: 10-500 mg/kg, 10 mice per group
Protocol: The compound of the present invention was further tested for acute toxicity by intravenous injection using male ddy mice. There was no death when the compound No. 1 of the present invention was administered in an amount of 10-500 mg/kg (each group consisted of 10 mice).

SMILES: Cc1cccc(NC(=O)C2=C(O)c3ccccc3S(=O)(=O)N2C)c1C(=O)O [No. 5, 4-Hydroxy-2-methyl-N-(2'-carboxy-3'-methylphenyl)-2H-1,2-benzothiazine-3-carboxamido-1,1-dioxide]
inhibition at 200 µM [1]: 85.2%

SMILES: COc1ccc2c(c1)c(CC(=O)O)c(C)n2C(=O)c1ccc(Cl)cc1 [Indometacin]
ulcer formation, in words (rat gastric mucosa): very serious ulcer | Ulcer index mean S.E. (rat gastric mucosa; rats fasted 24 hours, 48 hours after administration): 42.8 ± 8.7

SMILES: CN1C(C(=O)Nc2cc(Cl)ccc2C(=O)O)=C(O)c2ccccc2S1(=O)=O [No. 4, 4-Hydroxy-2-methyl-N-(2'-carboxy-5'-chlorophenyl)-2H-1,2-benzothiazine-3-carboxamido-1,1-dioxide]
inhibition at 200 µM [1]: 85.1%

SMILES: Cc1ccc(NC(=O)C2=C(O)c3ccccc3S(=O)(=O)N2C)c(C(=O)O)c1 [No. 6, 4-Hydroxy-2-methyl-N-(2'-carboxy-4'-methylphenyl)-2H-1,2-benzothiazine-3-carboxamido-1,1-dioxide]
inhibition at 200 µM [1]: 63%

SMILES: CN1C(C(=O)Nc2cccc(C(=O)O)c2)=C(O)c2ccccc2S1(=O)=O [No. 10, 4-Hydroxy-2-methyl-N-(3'-carboxyphenyl)-2H-1,2-benzothiazine-3-carboxamido-1,1-dioxide]
inhibition at 200 µM [1]: 90.7%

SMILES: CN1C(C(=O)Nc2ccc(O)cc2C(=O)O)=C(O)c2ccccc2S1(=O)=O [No. 7, 4-Hydroxy-2-methyl-N-(2'-carboxy-4'-hydroxyphenyl)-2H-1,2-benzothiazine-3-carboxamido-1,1-dioxide]
inhibition at 200 µM [1]: 86%

SMILES: CN1C(C(=O)Nc2ccc(Cl)cc2C(=O)O)=C(O)c2ccccc2S1(=O)=O [No. 3, 4-Hydroxy-2-methyl-N-(2'-carboxy-4'-chlorophenyl)-2H-1,2-benzothiazine-3-carboxamido-1,1-dioxide]
inhibition at 200 µM [1]: 65%

SMILES: CN1C(C(=O)Nc2ccccc2C(=O)O)=C(O)c2ccccc2S1(=O)=O [No. 2, 4-Hydroxy-2-methyl-N-(2'-carboxyphenyl)-2H-1,2-benzothiazine-3-carboxamido-1,1-dioxide]
inhibition at 200 µM [1]: 81.3% | Suppression (%) [2]: 29.3% | Amount of colorant which leaked out [2]: 6.8 ± 2.3 μg/site

effect on hyaluronidase activity [3]: no effect
SMILES: CN1C(C(=O)Nc2ccccc2)=C(O)c2ccccc2S1(=O)=O [4-hydroxy-2-methyl-N-(phenyl)-2H-1,2-benzothiazine-3-carboxamido-1,1-dioxide]

SMILES: COc1ccc(/C=C/C(=O)Nc2ccccc2C(=O)O)cc1OC [Tranilast]
IC50 [4]: ~230 µM | inhibition of histamine liberation [5]: about 20%

SMILES: CN1C(C(=O)Nc2ccccc2-c2nn[nH]n2)=C(O)c2ccccc2S1(=O)=O [No. 1, 4-hydroxy-2-methyl-N-[2'-(tetrazo-5"-yl)phenyl]-2H-1,2-benzothiazine-3-carboxamido-1,1-dioxide]
swelling percent ([6]; 200 mg/kg p.o. 60 min before carrageenin, 30 minutes after carrageenin administration, control 18.2%): 8.0% | inhibition (%) of edema, in words ([6]; 200 mg/kg p.o., 1, 1.5, 2 and 3 hours after carrageenin administration): About the same inhibition | inhibition of edema ([6]; 200 mg/kg p.o., 30 minutes after carrageenin administration): 54% | inhibition at 200 µM [1]: 93.9% | Suppression (%) [2]: 65.1% | Amount of colorant which leaked out [2]: 3.4 ± 1.3 μg/site | death in acute toxicity test (male ddy mice): no death

SMILES: CN1C(C(=O)Nc2cc([N+](=O)[O-])ccc2C(=O)O)=C(O)c2ccccc2S1(=O)=O [No. 9, 4-Hydroxy-2-methyl-N-(2'-carboxy-5'-nitrophenyl)-2H-1,2-benzothiazine-3-carboxamido-1,1-dioxide]
inhibition at 200 µM [1]: 106%

effect on hyaluronidase activity [3]: no effect
SMILES: CN1C(C(=O)Nc2ccccn2)=C(O)c2ccccc2S1(=O)=O [Piroxicam]

SMILES: CN1C(C(=O)Nc2c(O)cccc2C(=O)O)=C(O)c2ccccc2S1(=O)=O [No. 8, 4-Hydroxy-2-methyl-N-(2'-carboxy-6'-hydroxyphenyl)-2H-1,2-benzothiazine-3-carboxamido-1,1-dioxide]
inhibition at 200 µM [1]: 83.7%

SMILES: CN1C(C(=O)Nc2ccc(C(=O)O)cc2)=C(O)c2ccccc2S1(=O)=O [No. 11, 4-Hydroxy-2-methyl-N-(4'-carboxyphenyl)-2H-1,2-benzothiazine-3-carboxamido-1,1-dioxide]
inhibition at 200 µM [1]: 60.3%

Source: patent US5004742A, “Benzothiazine-1,1-dioxide derivatives” (Nippon Hypox Laboratories Incorporated, priority 1989, dated 1991)
